From ChEMBL document CHEMBL1770078, “Discovery of a potent peptidic cyclophilin A inhibitor Trp-Gly-Pro” (Eur J Med Chem, 2011) come the findings set out here.

Usually inhibition stands for the relative decrease from the control value, in per cent. One may read the IC50 as the midpoint of a concentration-inhibition curve. A word on the Kd: it is the equilibrium constant for the complex coming apart.

Where a SMILES comes first, the peptide text is derived from it.

The target in data set [1] is T1, Peptidyl-prolyl cis-trans isomerase A (Homo sapiens, UniProt P62937). The experiment in a line: Inhibition of PPIase activity of Cyclophilin A by Spectrophotometry.
The target of data set [2] is T1, Peptidyl-prolyl cis-trans isomerase A. In words: Binding affinity to Cyclophilin A.
Target sequence in this assay (P62937 whole entry): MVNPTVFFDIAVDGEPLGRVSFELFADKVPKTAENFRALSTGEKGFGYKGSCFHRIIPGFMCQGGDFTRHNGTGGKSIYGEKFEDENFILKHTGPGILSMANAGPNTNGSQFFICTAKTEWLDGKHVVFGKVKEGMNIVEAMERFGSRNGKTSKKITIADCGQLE
Data set [3] concerns Human immunodeficiency virus 1. In words: Antiviral activity against HIV1 3B infected in human MT2 cells assessed as inhibition of viral replication at 1 mM after 48 hrs by flow cytometry. It counts as functional. To be noted: Human immunodeficiency virus 1, 3B, MT2, 48 h.
A further data set concerns SK-HEP1. The experiment in a line: Cytotoxicity against human SKHEP1 cells upto 100 uM after 48 hrs by MTT assay. Type of data set: cell-based. The note with it: sk-hep1, 48 h.

For `N[C@@H](Cc1c[nH]c2ccccc12)C(=O)NCC(=O)N1CCC[C@H]1C(=O)O` (H-Trp-Gly-Pro-OH), the inhibition result in data set [1] is “Dose-dependent effect”. In addition, the IC50 in data set [1] (read-out: IC50) worked out at 33.1 nM. Besides, the Kd in data set [2] (read-out: Kd) was determined as 3.41 µM. Besides, in data set [3], the inhibition at 1000 µM amounted to 75.5%. Moreover, in the data set with SK-HEP1, the Activity result is given as “Non-toxic”.

Regarding `N[C@@H](Cc1ccc(O)cc1)C(=O)NCC(=O)N1CCC[C@H]1C(=O)O` (H-Tyr-Gly-Pro-OH), in data set [1], the IC50 entry is recorded as “Not Active”. Moreover, the Kd result in data set [2] is given as “Not Active”.

As to `C[C@H](NC(=O)[C@@H](N)Cc1c[nH]c2ccccc12)C(=O)NCC(=O)N1CCC[C@H]1C(=O)O` (H-WAGP-OH), in data set [1], the IC50 entry is on record as “Not Active”. Besides, in data set [2], the Kd result was “Not Active”.
